“And” between values parts separate entries of the source, which are not always exact repeats. Equal entries are not always repeated.
Legend:
P-gp = tested on: P-gp; parameters: method as in Theravance Biopharma US, Inc., data on file; settings: ref Theravance Biopharma US, Inc., data on file; cited from earlier work
NET = NET (Homo sapiens, UniProt P23975); test: Human PET NET occupancy with [11C]-MRB; type: in vivo; parameters: from tissue; host or cells: brain of healthy male volunteers, in vivo PET
Experimental: This was a Phase 1, open-label, single-dose study in healthy male volunteers to evaluate NET and SERT occupancy in the human brain after oral administration of TD-9855 using PET.
The study was conducted at the Yale PET Center in accordance with the principles of the International Conference on Harmonisation’s Technical Requirements for Registration of Pharmaceuticals for Human Use Guideline for Good Clinical Practice. The protocol was approved by the Yale University Human Investigation Committee and the Yale–New Haven Hospital Radiation Safety Committee. SERT and NET occupancy were determined using the selective radiotracers [^11C]-DASB ([Meyer et al., 2004]; [Takano et al., 2006]; [Abanades et al., 2011]; [Nogami et al., 2013]) and [^11C]-MRB. Selection of the radiotracers and the dose of TD-9855 were flexible to minimize the number of PET scans.
Eligible subjects were enrolled and received either [^11C]-MRB and/or [^11C]-DASB. Each subject underwent up to 5 PET scans over a period of up to 8 days. Multiple dose levels of TD-9855 (up to 20mg) were explored. All randomized subjects received the NET tracer (single-tracer evaluation) and some subjects (n = 3) received both the NET and SERT tracers sequentially (dual-tracer evaluation) in the baseline and post-dose period. […] In the dual-tracer evaluation, subjects completed sequential [^11C]-DASB and [^11C]-MRB baseline scans with each tracer, sequential post-dose scans with each tracer at 7–10hr post-dose, and one follow-up scan with [^11C]-MRB on or between Days 3 and 7.
The injected dose of both tracers was typically 14–15 mCi, with mass doses less than 10 µg in all cases. PET images were acquired using the High Resolution Research Tomograph (HRRT; Siemens/CTI) with a reconstructed image resolution of approximately 3mm. Following a transmission scan, [^11C]-MRB or [^11C]-DASB was injected intravenously as a 1min bolus by an infusion pump. List-mode data were acquired for 120min. Head motion correction was performed using an optical tracking tool (Vicra, NDI Systems) and a rigid tool attached to a swim cap.
The occipital cortex was selected as the reference region for [^11C]-MRB due to the low density of NET measured in vitro ([Schou et al., 2005]) and the absence of specific binding in a previous study ([Hannestad et al., 2010]). The regions of interest (ROIs) selected to assess [^11C]-MRB specific binding included one cortical region and the paracentral lobule, thalamus, hypothalamus, locus ceruleus, nucleus rubra, and raphe nucleus. The thalamus and cortical ROIs were delineated using the Automated Anatomical Labeling (AAL) template ([Tzourio-Mazoyer et al., 2002]). The hypothalamus, locus ceruleus, nucleus rubra, and raphe nucleus ROIs were drawn on the template MR image, based on the AAL template ([Hannestad et al., 2010]).
For both studies, binding potentials (BP ND) were estimated using a method based on a reference region input curve. For [^11C]-MRB regional BP ND were computed using the multilinear reference tissue model 2 (MRTM2; [Ichise et al., 2003]). The suitability of MRTM2 to estimate [^11C]-MRB BP ND values was evaluated in a previous study ([Hannestad et al., 2010]), in which it was shown that MRTM2 BP ND estimates are highly correlated with BP ND estimated with arterial blood sampling and the multilinear analysis 1 (y = 0.909 x + 0.078, r^2 = 0.821, where x represents the MA1 BP ND values and y represents the MRTM2 BP ND values). BP ND values and their associated standard errors ( SEBPND ) for each ROI were then estimated by performing fits of the regional TACs. Data were fitted starting at time t* = 20min. For [^11C]-DASB, regional BP ND values were computed using simplified reference tissue model 2 (SRTM2; [Wu and Carson, 2002]). SRTM2 is similar to MRTM2, except that it uses the full data set, while MRTM2 uses the period of time t > t*. When applied to single-voxel TACs, these fits provided the BP ND images. […]

[1] = Safety and tolerability in Phase 1 PET study; type: in vivo, human; settings: healthy males, single oral dose 4-20mg
Experimental: All adverse events (AEs) were assessed by the investigator and recorded in the case report form, including the dates of onset and resolution, severity, relationship to study drug, outcome, and action taken with study medication after the dosing of TD-9855 through the follow-up visit. Safety was assessed during the entire study by measurement of vital signs, laboratory tests, and evaluation of ECGs.

[2] = 4 mg single oral dose, individual subjects, rApp ± SE
[3] = 10 mg single oral dose, individual subject, rApp ± SE
[4] = 20 mg single oral dose, individual subject, rApp ± SE
[5] = 20 mg single oral dose, individual subjects, rApp ± SE

Chain of NET (P23975 whole entry): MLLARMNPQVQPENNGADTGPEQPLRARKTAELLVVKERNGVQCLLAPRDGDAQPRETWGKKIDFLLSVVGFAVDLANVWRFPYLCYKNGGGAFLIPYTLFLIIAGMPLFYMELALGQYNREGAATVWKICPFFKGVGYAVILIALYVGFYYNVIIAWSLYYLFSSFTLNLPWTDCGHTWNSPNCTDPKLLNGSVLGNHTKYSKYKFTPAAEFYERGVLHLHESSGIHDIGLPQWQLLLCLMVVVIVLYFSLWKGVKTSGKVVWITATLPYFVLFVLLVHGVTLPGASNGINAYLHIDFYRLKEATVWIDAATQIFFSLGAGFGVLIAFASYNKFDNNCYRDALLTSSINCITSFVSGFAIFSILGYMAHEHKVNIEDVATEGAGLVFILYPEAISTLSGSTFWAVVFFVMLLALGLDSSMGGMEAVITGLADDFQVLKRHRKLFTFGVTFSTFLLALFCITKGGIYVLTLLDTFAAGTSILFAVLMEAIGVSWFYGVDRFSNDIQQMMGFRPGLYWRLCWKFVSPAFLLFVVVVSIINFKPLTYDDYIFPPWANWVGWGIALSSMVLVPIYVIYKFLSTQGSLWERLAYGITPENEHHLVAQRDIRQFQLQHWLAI

Fc1cc(F)c(OCc2ccccc2C2CCNCC2)c(F)c1 [TD-9855, 4-[2-(2,4,6-trifluorophenoxymethyl)phenyl]piperidine]
P-gp substrate status (P-gp): non-P-gp substrate
Apparent NET Occupancy Day 7 (NET; 4 mg single oral dose, individual subject, rApp ± SE): 3.2±7.8%
Apparent NET Occupancy Day 1 (NET; [2]): 57.9±4.7% and 58.7±5.5% and 42.2±6.4%
Apparent NET Occupancy Day 3 (NET; [2]): 57.3±3.8% and 47.2±6.0% and 29.6±7.1%
Apparent NET Occupancy Day 1 (NET; [3]): 110.3±7.4%
Apparent NET Occupancy Day 3 (NET; [3]): 92.0±10.8%
Apparent NET Occupancy Day 6 (NET; [4]): 62.9±5.0%
Apparent NET Occupancy Day 7 (NET; [4]): 2.6±11.6%
Apparent NET Occupancy Day 1 (NET; [5]): 120.3±6.2% and 98.4±4.7% and 119.1±8.3% and 121.2±4.5%
Apparent NET Occupancy Day 3 (NET; [5]): 96.2±10.2% and 124.3±4.9%
EC50 (NET; human brain PET, single oral 4-20mg, fit ± standard error, read-out: plasma EC50 for NET occupancy (converted)): 3.77 nM
clinical laboratory values, physical examination, vital signs, ECG [1]: No clinically significant abnormalities
deaths and adverse events [1]: No deaths, severe AEs, or AEs occurred
overall tolerability [1]: well tolerated

Source: paper PMC4368888, “Preclinical to Clinical Translation of CNS Transporter Occupancy of TD-9855, a Novel Norepinephrine and Serotonin Reuptake Inhibitor” (International Journal of Neuropsychopharmacology, 2015)
